Molecular target: T1, cloned human GLP-1 receptor (Homo sapiens, UniProt P43220)
T1 construct: expressed in transfected cells; host or cells: CHO or HEK-293 cells
Test: Functional cell-based assay: cAMP functional assay
Conditions: for Emax: 0.5 h, percentage relative to maximal GLP-1-induced cAMP accumulation, na = not active in the assay, read-out: % activation
Protocol: Following overnight incubation of cells, media was removed, and compounds (at concentrations ranging from 0.0001 to 100 μM) were added to monolayer cells in Iscove's modified dulbecco's medium (IMDM), 100 μM RO 20-1724 PDE inhibitor, 0.1% BSA, 2% DMSO in a final volume of 100 μL, and incubated for 30 min at 37° C. 95% O2, 5% CO2 in a humidified incubator. cAMP was quantitated using a homogenous time-resolved fluorescence detection system (cAMP dynamic, CIS bio International).

T1 sequence (P43220 24-463): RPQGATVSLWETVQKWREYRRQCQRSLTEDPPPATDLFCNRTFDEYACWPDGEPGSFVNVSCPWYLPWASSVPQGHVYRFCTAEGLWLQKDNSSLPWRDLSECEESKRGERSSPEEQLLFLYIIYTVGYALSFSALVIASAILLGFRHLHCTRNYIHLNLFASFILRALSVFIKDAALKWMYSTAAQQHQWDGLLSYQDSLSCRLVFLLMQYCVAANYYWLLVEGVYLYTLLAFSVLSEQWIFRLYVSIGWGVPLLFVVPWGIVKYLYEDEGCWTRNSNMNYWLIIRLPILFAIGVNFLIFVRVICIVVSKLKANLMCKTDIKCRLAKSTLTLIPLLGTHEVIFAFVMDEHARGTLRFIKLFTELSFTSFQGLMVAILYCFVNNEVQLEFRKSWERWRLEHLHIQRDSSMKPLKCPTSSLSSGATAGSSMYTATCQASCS

| EC50 | Emax | Compound |
| --- | --- | --- |
| 270 nM | 74.7% | N#Cc1ccc(-c2ccc(C[C@H](NC(=O)[C@@H]3Cc4cc5c(cc4CN3C(=O)OCC3CC3)OC(c3ccc(OCc4ccc(Cl)c(Cl)c4)cc3)C(=O)N5)C(=O)O)cc2)cc1 (stereo partly drawn) [Example 18, (S)-7-[(S)-1-Carboxy-2-(4′-cyano-biphenyl-4-yl)-ethylcarbamoyl]-3-[4-(3,4-dichloro-benzyloxy)-phenyl]-2-oxo-1,2,3,5,7,8-hexahydro-4-oxa-1,6-diaza-anthracene-6-carboxylic acid cyclopropylmethyl ester] |
| 64.5 nM | 82% | CC[C@@H](c1ccccc1)N1Cc2cc3c(cc2C[C@H]1C(=O)N[C@@H](Cc1ccc(-c2ccc(C#N)cc2)cc1)C(=O)O)N(C)C(=O)[C@H](c1ccc(OCc2ccc(Cl)c(Cl)c2)cc1)O3 [Example 87, (S)-3-(4′-Cyano-biphenyl-4-yl)-2-{[(3S,7S)-3-[4-(3,4-dichloro-benzyloxy)-phenyl]-1-methyl-2-oxo-6-((S)-1-phenyl-propyl)-2,3,5,6,7,8-hexahydro-1H-4-oxa-1,6-diaza-anthracene-7-carbonyl]-amino}-propionic acid] |
| 138 nM | 31% | CC[C@@H](c1ccccc1)N1Cc2cc3c(cc2C[C@H]1C(=O)N[C@@H](Cc1ccc(-c2ccc(Cl)cc2)cc1)C(=O)O)N(C)C(=O)[C@H](c1ccc(OCc2ccc(Cl)c(Cl)c2)cc1)O3 [Example 93, (S)-3-(4′-Chloro-biphenyl-4-yl)-2-{[(3S,7S)-3-[4-(3,4-dichloro-benzyloxy)-phenyl]-1-methyl-2-oxo-6-((S)-1-phenyl-propyl)-2,3,5,6,7,8-hexahydro-1H-4-oxa-1,6-diaza-anthracene-7-carbonyl]-amino}-propionic acid] |
| 820 nM | 30% | N#Cc1ccc(-c2ccc(C[C@H](NC(=O)[C@@H]3Cc4cc5c(cc4CN3S(=O)(=O)c3ccccc3[N+](=O)[O-])OC(c3ccc(OCc4ccc(Cl)c(Cl)c4)cc3)C(=O)N5)C(=O)O)cc2)cc1 (stereo partly drawn) [Example 51, (S)-3-(4′-Cyano-biphenyl-4-yl)-2-{[(S)-3-[4-(3,4-dichloro-benzyloxy)-phenyl]-6-(2-nitro-benzenesulfonyl)-2-oxo-2,3,5,6,7,8-hexahydro-1H-4-oxa-1,6-diaza-anthracene-7-carbonyl]-amino}-propionic acid] |
| 1630 nM | 62% | N#Cc1ccc(-c2ccc(C[C@H](NC(=O)[C@@H]3Cc4cc5c(cc4CN3C(=O)c3ccccc3)OC(c3ccc(OCc4ccc(Cl)cc4)cc3)C(=O)N5)C(=O)O)cc2)cc1 (stereo partly drawn) [Example 60, (S)-2-({(S)-6-Benzoyl-3-[4-(4-chloro-benzyloxy)-phenyl]-2-oxo-2,3,5,6,7,8-hexahydro-1H-4-oxa-1,6-diaza-anthracene-7-carbonyl}-amino)-3-(4′-cyano-biphenyl-4-yl)-propionic acid] |
| 181 nM | 69.9% | N#Cc1ccc(-c2ccc(C[C@H](NC(=O)[C@@H]3Cc4cc5c(cc4CN3C(=O)O[C@@H]3CCOC3)OC(c3ccc(OCc4ccc(Cl)c(Cl)c4)cc3)C(=O)N5)C(=O)O)cc2)cc1 (stereo partly drawn) [Example 19, (S)-7-[(S)-1-Carboxy-2-(4′-cyano-biphenyl-4-yl)-ethylcarbamoyl]-3-[4-(3,4-dichloro-benzyloxy)-phenyl]-2-oxo-1,2,3,5,7,8-hexahydro-4-oxa-1,6-diaza-anthracene-6-carboxylic acid (R)-(tetrahydro-furan-3-yl) ester] |
| 700 nM | 8.3% | N#Cc1ccc(-c2ccc(C[C@H](NC(=O)[C@@H]3Cc4cc5c(cc4CN3S(=O)(=O)c3cccs3)OC(c3ccc(OCc4ccc(Cl)c(Cl)c4)cc3)C(=O)N5)C(=O)O)cc2)cc1 (stereo partly drawn) [Example 32, (S)-3-(4′-Cyano-biphenyl-4-yl)-2-{[(S)-3-[4-(3,4-dichloro-benzyloxy)-phenyl]-2-oxo-6-(thiophene-2-sulfonyl)-2,3,5,6,7,8-hexahydro-1H-4-oxa-1,6-diaza-anthracene-7-carbonyl]-amino}-propionic acid] |
| 220 nM | 32% | N#Cc1ccc(-c2ccc(C[C@H](NC(=O)[C@@H]3Cc4cc5c(cc4CN3Cc3ccccc3)OC(c3ccc(OCc4cnc(Cl)c(Cl)c4)cc3)C(=O)N5)C(=O)O)cc2)cc1 (stereo partly drawn) [Example 65, (S)-2-({(8)-6-Benzyl-3-[4-(5,6-dichloro-pyridin-3-ylmethoxy)-phenyl]-2-oxo-2,3,5,6,7,8-hexahydro-1H-4-oxa-1,6-diaza-anthracene-7-carbonyl}-amino)-3-(4′-cyano-biphenyl-4-yl)-propionic acid] |
| 1040 nM | 52.5% | N#Cc1ccc(-c2ccc(C[C@H](NC(=O)[C@@H]3Cc4cc5c(cc4CN3Cc3ccccc3C#N)OC(c3ccc(OCc4ccc(Cl)c(Cl)c4)cc3)C(=O)N5)C(=O)O)cc2)cc1 (stereo partly drawn) [Example 53, (S)-2-({(S)-6-(2-Cyano-benzyl)-3-[4-(3,4-dichloro-benzyloxy)-phenyl]-2-oxo-2,3,5,6,7,8-hexahydro-1H-4-oxa-1,6-diaza-anthracene-7-carbonyl}-amino)-3-(4′-cyano-biphenyl-4-yl)-propionic acid] |
| 895 nM | 64% | Cn1ccnc1CN1Cc2cc3c(cc2C[C@H]1C(=O)N[C@@H](Cc1ccc(-c2ccc(C#N)cc2)cc1)C(=O)O)NC(=O)C(c1ccc(OCc2ccc(Cl)c(Cl)c2)cc1)O3 (stereo partly drawn) [Example 48, (S)-3-(4′-Cyano-biphenyl-4-yl)-2-{[(S)-3-[4-(3,4-dichloro-benzyloxy)-phenyl]-6-(1-methyl-1H-imidazol-2-ylmethyl)-2-oxo-2,3,5,6,7,8-hexahydro-1H-4-oxa-1,6-diaza-anthracene-7-carbonyl]-amino}-propionic acid] |
| 557 nM | 57% | N#Cc1ccc(-c2ccc(C[C@H](NC(=O)[C@@H]3Cc4cc5c(cc4CN3Cc3nccs3)OC(c3ccc(OCc4ccc(Cl)c(Cl)c4)cc3)C(=O)N5)C(=O)O)cc2)cc1 (stereo partly drawn) [Example 49, (S)-3-(4′-Cyano-biphenyl-4-yl)-2-({(S)-3-[4-(3,4-dichloro-benzyloxy)-phenyl]-2-oxo-6-thiazol-2-ylmethyl-2,3,5,6,7,8-hexahydro-1H-4-oxa-1,6-diaza-anthracene-7-carbonyl}-amino)-propionic acid] |
| 750 nM | 52% | N#Cc1ccc(-c2ccc(C[C@H](NC(=O)[C@@H]3Cc4cc5c(cc4CN3C(=O)c3ccccc3)OC(c3ccc(OCc4cccc(Cl)c4)cc3)C(=O)N5)C(=O)O)cc2)cc1 (stereo partly drawn) [Example 59, (S)-2-({(S)-6-Benzoyl-3-[4-(3-chloro-benzyloxy)-phenyl]-2-oxo-2,3,5,6,7,8-hexahydro-1H-4-oxa-1,6-diaza-anthracene-7-carbonyl}-amino)-3-(4′-cyano-biphenyl-4-yl)-propionic acid] |
| 30000 nM | 18% | N#Cc1ccc(-c2ccc(C[C@H](NC(=O)[C@@H]3Cc4cc5c(cc4CN3C(=O)[C@@H]3CCCO3)OC(c3ccc(OCc4ccc(Cl)c(Cl)c4)cc3)C(=O)N5)C(=O)O)cc2)cc1 (stereo partly drawn) [Example 5, (S)-3-(4′-Cyano-biphenyl-4-yl)-2-{[(S)-3-[4-(3,4-dichloro-benzyloxy)-phenyl]-2-oxo-6-((S)-tetrahydro-furan-2-carbonyl)-2,3,5,6,7,8-hexahydro-1H-4-oxa-1,6-diaza-anthracene-7-carbonyl]-amino}-propionic acid] |
